Experimental data as given in ChEMBL document CHEMBL1821559, “Grassypeptolides F and G, cyanobacterial peptides from Lyngbya majuscula” (J Nat Prod, 2011).
The source made the active and inactive calls. The calls are words filed in the database; no cut-off is given here.

Tested on: HEK-293T
Assay: Cytotoxicity against AP1 expressing HEK293T cells coexpressing beta-lactamase pre-incubated 1 hr before TPA addition measured 18 hrs post TPA challenge by fluorimetric assay
Assay type: functional, cell-based
Conditions: Homo sapiens

Compound	Activity
CC(C)[C@H]1C(=O)N2CCC[C@H]2C(=O)N(C)[C@H](Cc2ccccc2)C2=N[C@@H](CS2)C(=O)N[C@H](C)C2=N[C@@H](CS2)C(=O)N(C)[C@H](Cc2ccccc2)C(=O)N[C@H](C(C)C)C(=O)N[C@H](C)[C@@H](C)C(=O)O[C@@H](Cc2ccccc2)C(=O)N1C	Active
CC[C@H]1NC(=O)[C@@H]2CSC(=N2)[C@@H](Cc2ccccc2)N(C)C(=O)[C@@H]2CCCN2C(=O)[C@H](C(C)C)N(C)C(=O)[C@H](Cc2ccccc2)OC(=O)[C@H](C)[C@@H](C)NC(=O)[C@@H](C(C)C)NC(=O)[C@@H](Cc2ccccc2)N(C)C(=O)[C@@H]2CSC1=N2	Active
